One may read the GI50 as the concentration that inhibits growth by half.

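Method: 48-hour compound exposure of cells in 96-well plates, five concentrations, linear interpolation of endpoints. Here, GI50 denotes the concentration required for 50% inhibition of growth.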 Active and inactive are the calls of the source. Cut-off read from the data, not from the text of the source: active = GI50 up to about 1.1 µM and inactive = higher. Some results are limits rather than exact numbers.

Among the test systems are CCRF-CEM; OVCAR-8; RXF 393; U-251; HCC 2998; SF-268; ACHN; HCT-116; SF-539; SW-620; M14; SK-MEL-2; UACC-62; KM12; HOP-62; A498; CAKI-1; SF-295; NCI-H522.
Experiment in all cases: DTP human tumour cell line panel, 48 h

Take `CCOC(=O)C(NC(=O)CC)(Nc1cc(C)on1)C(F)(F)F` (configuration not stated): the GI50 with CCRF-CEM, with OVCAR-8, in the assay on RXF 393, in the assay with U-251, in the assay with HCC 2998 and with SF-268 was > 100 µM (inactive) throughout. Moreover, the GI50 in the assay with ACHN, with HCT-116, in the assay on SF-539, in the assay on SW-620, in the assay on M14 and in the assay on SK-MEL-2 was > 100 µM (inactive) each time.

Consider `COc1cc(C2c3cc4c(cc3[C@@H](NCCN3CCCCC3)C3COC(=O)[C@H]23)OCO4)cc(OC)c1O` (some centres not stated), for which the GI50 was 0.055 µM (active) with CCRF-CEM; 0.998 µM (active) in the assay with OVCAR-8; 0.298 µM (active) with UACC-62; 1.08 µM (active) in the assay with KM12; 0.122 µM (active) with U-251; 0.0624 µM (active) with HOP-62. The concentration for 50% growth inhibition (GI50) was 0.237 µM (active) in the assay with A498; 0.0802 µM (active) in the assay on CAKI-1; 0.628 µM (active) in the assay on SF-268; 0.671 µM (active) in the assay with ACHN; 1.82 µM (inactive) with HCT-116; 0.209 µM (active) with SF-539. Also, the 50% growth inhibitory concentration (GI50) with SW-620 was 0.621 µM (active); in the assay on M14, 0.324 µM (active); in the assay with SF-295 it was 0.0986 µM (active); in the assay with SK-MEL-2 it was 2.06 µM (inactive).

`O=C1C[C@@H]2[C@@H](c3ccccc3)[C@@H]3C(=O)c4ccccc4NC(=O)[C@H]3[C@]2(O)c2ccccc2N1`: the GI50 with CCRF-CEM, with OVCAR-8, with UACC-62, with KM12, in the assay with RXF 393 and in the assay on U-251 was > 100 µM (inactive) in each case. For the same compound, the GI50 in the assay with HOP-62, in the assay on SF-268, with ACHN, in the assay with HCT-116, in the assay with NCI-H522 and with SW-620 was > 100 µM (inactive) in each case. Also, the GI50 in the assay on M14, in the assay with SF-295 and in the assay with SK-MEL-2 was > 100 µM (inactive) each time.

Consider `CC1CCc2c(sc3ncnc(N/N=C/c4ccc(Cl)c(Cl)c4)c23)C1` (configuration not stated), for which the GI50 with CCRF-CEM is 4.3 µM (inactive); in the assay on OVCAR-8, 17.9 µM (inactive); in the assay with UACC-62, 18.2 µM (inactive); with RXF 393, 20.9 µM (inactive); in the assay on U-251, 5.2 µM (inactive); in the assay with HOP-62 it was 25.2 µM (inactive). For the same compound, the GI50 in the assay on HCC 2998 is 23.6 µM (inactive); in the assay on CAKI-1, 26.2 µM (inactive); in the assay on SF-268, 13.3 µM (inactive); with ACHN, 5.38 µM (inactive); in the assay on HCT-116 it was 4.55 µM (inactive); in the assay with SF-539, 21.7 µM (inactive). The GI50 is 5.45 µM (inactive) with NCI-H522; 6.07 µM (inactive) in the assay on SW-620; 14.3 µM (inactive) with M14; 11.4 µM (inactive) with SF-295; 10.3 µM (inactive) with SK-MEL-2.

With `[N-]=[N+]=NC(CCl)c1cn([C@H]2C[C@H](O)[C@@H](CO)O2)c(=O)[nH]c1=O` (some centres not stated), the GI50 with CCRF-CEM, in the assay with OVCAR-8, in the assay on UACC-62, with KM12, in the assay on RXF 393 and with U-251 was > 100 µM (inactive) each time. In addition, the GI50 in the assay on HOP-62, in the assay with HCC 2998, with CAKI-1, in the assay on ACHN, in the assay with HCT-116 and in the assay on SF-539 was > 100 µM (inactive) in each case. For the same compound, the GI50 in the assay on NCI-H522, in the assay with SW-620, with M14, in the assay with SF-295 and with SK-MEL-2 was > 100 µM (inactive) throughout.

(Values after ChEMBL document CHEMBL1201862, “PubChem BioAssay data set” (2004).)
